Test: gradient 5% acetonitrile 3 min, to 50% in 2 min, to 85% in 15 min, held 3 min, 100 µL/min
Details: column: Zorbax Extend-C18 2.1 x 50 mm; eluents: water / acetonitrile, 0.1% formic acid
How it was run: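 Pure standards were analyzed in mixtures of ~100 molecules using HPLC coupled to a quadrupole time-of-flight mass spectrometer, in both positive and negative ionization mode. Separation used a Zorbax Extend-C18 column (2.1 × 50 mm, 1.8 μm) at 100 μL/min, with water and acetonitrile each containing 0.1% formic acid. Dead and dwell volumes were 40 μL and 900 μL, and data were collected over 3 months. Retention time was read from computationally picked adduct peaks, each inspected manually.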

SMILES	RP-LC retention time
Cc1ccc2[nH]cc(CCNC(=O)CCC(=O)N3Cc4cccn4-c4ccccc43)c2c1	868 s
COC(=O)C1C(=O)C2=C(CC1C)Nc1ccccc1NC2c1ccc(Cl)cc1 (configuration not stated)	852 s
Cc1ccn2cc(C(=O)NC3CCCCC3)nc2c1	627 s
Cc1cn2c(=O)c(S(=O)(=O)N3CCN(c4ccccn4)CC3)c(C)nc2s1	601 s
CS(=O)(=O)N1CCCc2cc(C(=O)NCc3ccc4c(c3)OCO4)ccc21	779 s
COc1ccccc1CNS(=O)(=O)c1ccc2c(c1)CCCC(=O)N2	721 s
CN(C(=O)C(=O)Nc1ccc2nc3n(c(=O)c2c1)CCCCC3)c1ccccc1F	746 s
C=CCN1C(=O)COc2ccc(-c3csc(NC(=O)C(C)C)n3)cc21	895 s
Cn1nccc1-c1cccc(-c2noc(CNC(=O)c3ccco3)n2)c1	733 s
CCCS(=O)(=O)N1CCC(F)(F)C(COCc2cccnc2)C1 (configuration not stated)	656 s
O=C(CSc1nccn1-c1cccc(C(F)(F)F)c1)Nc1nccs1	728 s
CC(C)(Oc1ccc(Cl)cc1)C(=O)NCC1CCN(C(=O)Nc2ccc(F)cc2)CC1	874 s
O=C(c1nnn2c1COC(c1ccc(Cl)cc1)C2)N1CCN(C(=O)c2c(F)cccc2F)CC1 (configuration not stated)	951 s
CC(=O)c1cccc(NC(=O)Cn2cc(-c3nnc(C)o3)c3ccccc32)c1	755 s
CCn1ccc2c(cc(C(=O)Nc3cc(Cl)c(OC)cc3OC)n2C)c1=O	810 s
COC(=O)c1cc2c([nH]c1=O)CC(c1ccc(Cl)cc1)CC2=O (configuration not stated)	728 s
Cc1cc(C)n2nc(CN(C(=O)c3cccs3)c3ccc(F)cc3)nc2n1	779 s
Cc1c(-c2ccc(O)cc2)n(Cc2ccc(OCCN3CCCCCC3)cc2)c2ccc(O)cc12	720 s
O=C(CCCSc1ccc(NC(=O)c2ccc(F)cc2)nn1)Nc1nccs1	745 s
COc1cccc(C2CC(c3ccc(F)cc3)=NC3(CCN(C(C)=O)CC3)N2)c1O (configuration not stated)	656 s
O=C(Cn1cccc1-c1nnc(C2CC2)o1)NCc1ccc2c(c1)OCO2	749 s
CCOc1ccc(OCC)c(NC(=O)CSc2nccnc2Oc2ccccc2)c1	1190 s
COc1ccc(Cl)cc1NC(=O)CSc1nccc(N2CCN(c3cc(C)ccc3C)CC2)n1	1160 s
CC(=O)OC[C@]12CCC(C)=C[C@H]1O[C@@H]1[C@H](O)[C@@H](OC(C)=O)[C@@]2(C)[C@@]12CO2	750 s
COc1ccc(CC(=O)N2CCC3(C2)C(=O)Nc2ccc(OC)cc23)cc1 (configuration not stated)	709 s

SMILES	RP-LC retention time
Cc1cc(C)n(CCNC(=O)NC(c2ccccc2)c2ccccc2)n1	716 s
CC(C)NC(=O)c1ccccc1OCC1CCCNC1 (configuration not stated)	583 s
CC1CSc2ccc(S(=O)(=O)N3CCN(c4ccccn4)CC3)cc2NC1=O (configuration not stated)	647 s
COc1ccc(NC(=O)N2[C@H]3CC[C@@H]2c2cnc(C)nc2C3)cc1OC	611 s
CCCNC(=O)C1CCCN(c2nc3ncn(CC(=O)NCCC4=CCCCC4)c(=O)c3s2)C1 (configuration not stated)	732 s
COc1ccc(NC(=O)C(=O)c2cccn2C)cc1OC	784 s
CCNC(=O)Cc1nnc(-c2cccc(F)c2)o1	656 s
Cc1ccc(-c2cn3c(CC(=O)Nc4ccc(F)cc4C)csc3n2)cc1C	862 s
O=C(NCc1ccccc1)N1CCC(Nc2cccnc2)C1 (configuration not stated)	580 s
COc1ccc2c(c1)C1(CCN(C(=O)c3ccc(OC)c(OC)c3)C1)C(=O)N2C (configuration not stated)	886 s
CCOC(=O)c1sc(NCCc2c[nH]c3ccc(OC)cc23)nc1-c1ccccc1	1040 s
CN1CCC(N2CCN(S(=O)(=O)c3ccccc3F)CC2)C1=O (configuration not stated)	545 s
CCOc1ccc(Nc2ncccc2S(N)(=O)=O)cc1	773 s
Cc1nccn1Cc1noc(-c2ccc(Cl)cc2)n1	638 s
O=C(NCCc1c[nH]c2ccccc12)c1cc(S(=O)(=O)N2CCSCC2)ccc1Cl	925 s
CCN(CC)S(=O)(=O)c1ccc2c(c1)N(CC(=O)NC1CCCC1)C(=O)C1CCCCN21 (configuration not stated)	927 s
CCNC(=O)C1CCCN1C(=O)Nc1ccccc1 (configuration not stated)	619 s
Brc1ccc(-c2nnc(SCCCCOc3ccccc3)o2)cc1	1280 s
CC1CCCCN1S(=O)(=O)c1cc(-c2nnc(C3CC3)o2)co1 (configuration not stated)	896 s
CCN(C(=O)C1CCCN1S(=O)(=O)c1cc2c(cc1Cl)NC(=O)CO2)c1ccccc1 (configuration not stated)	836 s
CC(C(=O)NCCN1CCOCC1)C1CCN(C(=O)c2cc3cc(Cl)ccc3[nH]2)CC1 (configuration not stated)	589 s
O=C(Cc1ccc(Cl)cc1)NCc1nc(-c2cccc(-c3csc(C4CC4)n3)c2)no1	1120 s
Cc1ccc(Cn2c(C)c(CNCc3ccco3)c(C(=O)O)c2C)cc1	666 s
O=C(CSc1nnc(CCc2nc3ccccc3[nH]2)o1)NCc1c(F)cccc1F	571 s
Cc1ccc(C(=O)N2CCN(c3nc(CN4CCC(C)CC4)cs3)CC2)cc1F	688 s

Results, then the molecule that gave them:

RP-LC retention time	SMILES
804 s	O=C(NC1CCCCC1)C1CCCN(c2ccc(=O)n(-c3ccc(F)cc3)n2)C1 (configuration not stated)
1120 s	Cc1c(Cl)cccc1Nc1c(-c2ccc(Cl)cc2)nc2cnccn12
953 s	Cc1nc(-c2ccc3c(c2)CCN3C(=O)c2cccs2)cs1
802 s	CC(C)c1ccc(S(=O)(=O)N2C[C@@H](F)C[C@H]2C(=O)N2CCOCC2)cc1
1110 s	CCN1C(=O)COc2ccc(-c3noc(COc4ccc(Cl)cc4)n3)cc21
1020 s	CN(C(=O)CSc1nc(-c2ccccc2)no1)c1ccc(F)cc1
661 s	CCc1ccc(NC(=O)Cn2c(N3CCCCC3)nc(C)cc2=O)cc1
765 s	COCCCNC(=O)Cn1nc2cc(C)nc(-c3ccc(C(F)(F)F)cc3)n2c1=O
856 s	COc1ccc(N2CC(c3noc(-c4ccc(OC)c(F)c4)n3)CC2=O)cc1 (configuration not stated)
955 s	Cc1ccsc1CCNC(=O)C1CCN(S(=O)(=O)c2c(C)nn(-c3ccccc3)c2C)CC1
712 s	O=C(Nc1ccccc1)N1CCC(n2c(-c3ccoc3)nc3cccnc32)C1 (configuration not stated)
587 s	CCN(CC)CCNC(=O)CCc1cc2cc(C)ccc2[nH]c1=O
646 s	CNC(=O)C1CCN(c2nc3ncn(CC(=O)Nc4c(C)cc(C)cc4C)c(=O)c3s2)CC1
935 s	Cc1cc(C)n(-c2ccnc(N3CCC(C(=O)N4CCc5ccccc5C4)CC3)n2)n1
682 s	O=C(NCCc1c[nH]c2ccccc12)c1cc(=O)[nH]c2ccccc12
857 s	Cc1cc(-c2nnc(-c3ccco3)o2)c(C)n1CC(=O)NCc1ccc(F)cc1F
1050 s	CCOC(=O)c1cc(S(=O)(=O)N2CCCC2C(=O)Nc2cccc(C(F)(F)F)c2)cn1C (configuration not stated)
1060 s	Cc1cc2nn(CC(=O)Nc3ccc(F)cc3F)c(=O)n2c(Nc2ccc(F)c(C)c2)n1
1160 s	COc1ccc(Cn2c(=O)c3sccc3n(Cc3nc(-c4ccc(SC)cc4)no3)c2=O)cc1

RP-LC retention time	SMILES
1270 s	Cc1cc(C)c(S(=O)(=O)N2CCCC2c2nc(-c3ccc(F)cc3)no2)c(C)c1 (configuration not stated)
1250 s	Cc1ccc(Cl)cc1N1CCN(c2ncc(S(=O)(=O)c3ccccc3)c(N)n2)CC1
840 s	Cc1ccc(NS(=O)(=O)c2cc3n(c2)CCN(CC(C)C)C3=O)cc1F
817 s	Cc1ccc(NC(=O)N2C[C@@H](F)C[C@H]2C(=O)N2CCc3ccccc3C2)c(C)c1
951 s	COc1ccc(Cl)cc1C(=O)Nc1ccc2c(c1)C(=O)NCCO2
989 s	COc1ccccc1CCc1nc(C2CC(=O)N(C3CCCCC3)C2)no1 (configuration not stated)
656 s	O=C(c1ccn[nH]1)N1C[C@@H]2C(=O)N(CCc3ccccc3)C(=O)[C@@H]2C1
878 s	O=c1c2scc(-c3ccc(Cl)cc3)c2ncn1Cc1cc(=O)n2ccccc2n1
612 s	CCOC(=O)C1=C(N)Oc2c(oc(CO)cc2=O)C1c1cccnc1 (configuration not stated)
610 s	COc1ccc(N2C(=O)CCC(C(=O)NCCCN3CCCCCC3)C2c2ccc(F)cc2)cc1 (configuration not stated)
972 s	CC(Oc1ccccc1)C(=O)N1CCN(C(=O)c2nnn3c2COC(c2ccc(Cl)cc2)C3)CC1 (configuration not stated)
1010 s	CCCC(=O)O[C@]1(C(=O)CO)CC[C@H]2[C@@H]3CCC4=CC(=O)CC[C@]4(C)[C@H]3[C@@H](O)C[C@@]21C
864 s	O=C(Cn1nc(N2CCOCC2)c2ccccc2c1=O)Nc1ccc(Br)cc1
963 s	CCOc1ccc(-c2nc(CNC(=O)Nc3cc(OC)ccc3OC)c(C)o2)cc1
580 s	Cc1cc(-c2nnc(NC(=O)Cn3cnc4c3c(=O)n(C)c(=O)n4C)o2)n(C)n1
906 s	COc1cc(C(=O)N2CC(=O)Nc3ccc(F)cc3C2c2ccccc2)cc(OC)c1OC (configuration not stated)
814 s	Cc1ccc(N2C=C(C(=O)N3CCOCC3)S(=O)(=O)c3ccc(F)cc32)cc1
845 s	O=C(Nc1ccccc1-n1cccc1)c1cn(-c2ccc(F)cc2)nn1
